Read-outs that look alike come from different tables or passages of the source. One block for each compound: values may come before it.
Columns and labels:
[1] = test system: p53; assay: p53 accumulation, ratio RKO-E6 cells/RKO cells (immunoblot, densitometry); format: cell-based, human; conditions: 6 h; etoposide 50 μM, MG115, NSC-302979, DBA 20 μM, others 60 μM
Description: (§1) A) Accumulation of polyubiquitin. RKO-E6 cells were treated with DMSO vehicle for 24 h, 37° C., or with the concentrations of test compounds that gave 80% cell death (as determined by cell viability assay at 48 h) for 6, 12, or 24 h, 37° C. […] Schematic depicting p53 degradation via the proteasome pathway in RKO cells versus RKO-E6 cells. The activity of the HPV E6 oncoprotein hastens p53 degradation in RKO-E6 cells. ii. RKO and RKO-E6 cells were treated with vehicle, etoposide (50 μM), MG115 (20 μM), Δ12-PGJ2 (60 μM), NSC-302979 (20 μM, DBA (20 μM), curcumin (60 μM), PGB1 (60 μM), NSC-156236, (60 XM)or DPTP 60 μM for 6 h, 37° C. Lysates were fractionated by SDS-PAGE and their p53 content determined immunochemically. iii. p53 levels were measured by densitometry and the ratio of p53 protein in RKO-E6 cells/RKO cells calculated.
(§2) The medium was removed and cells lysed in 50 mM Tris, pH 7.4, 100 mM NaCl, 2 mM EDTA with 0.1% SDS, 0.1% deoxycholate, 1× complete protease inhibitor mixture. Protein concentration was measured by the Bradford method. Equal portions of the total cell lysate were fractionated from each sample (12.5 μg of protein) by SDS-PAGE. Proteins were transferred to poly(vinylidene difluoride) blocked with 5% (w/v) nonfat dry milk in Trisbuffered saline [20 mM Tris-HCl, pH 7.5, 100 mM sodium chloride, 0.1% (v/v) Tween 20]. Proteins were detected immunochemically by using primary antibodies directed against p53 (1:4000) or ubiquitin (1:1000), followed by horseradish peroxidase-conjugated secondary antibodies (1:4000). Antigen-antibody complexes were detected with enhanced chemiluminescence reagents. Gels were scanned and quantified intensities using Kodak 1D Image Analysis Software.

[2] = test system: ubiquitin isopeptidases; assay: Ubiquitin isopeptidase activity, Ub-PEST substrate, lysates of treated RKO and HCT 116 cells; format: cell-based, human; conditions: cells treated 6, 20 or 60 μM, 12 h
Description: A) Inhibition of isopeptidase proteolysis of Ub-PEST substrate. RKO and HCT 116 cells were treated with DMSO vehicle, 6, 20, or 60 μM of Δ12-PGJ2, DBA, NSC-302979, or curcumin, 60 μM PGB1, 60 μM NSC-156236, or 60 μM DPTP for 12 h, 37° C. Cell lysates from each treatment were incubated with Ub-PEST, as described in materials and methods. Samples were fractionated by SDS-PAGE and proteins detected with ubiquitin epitopes immunochemically (HCT 116 ^+/+ western blot shown as example of raw data). […] B) Inhibition of isopeptidase activity by test panel compounds. Isopeptidase activity was determined by measuring via densitometry, the amount of Ub generated by isopeptidase cleavage of Ub-PEST. Bar graph patterns are DMSO vehicle (black), Δ12-PGJ2 (hatched), DBA (horizontal lines), NSC-302979 (white), PGB1 (diagonally downward right lines), and NSC-156236 (diagonally downward left lines). The amount of Ub generated in the vehicle treated sample (panel A, lane 2) is arbitrarily designated 100%.
Cellular isopeptidase enzymatic activity was measured with two assays that used different substrates. In one assay ubiquitin-PEST (Ub-PEST) was used, a full-length ubiquitin molecule with an 18 amino acid c-terminal peptide extension (total mass=10.5 kDa). Ubiquitin isopeptidases specifically cleave the 18 amino acid peptide extension, releasing full-length ubiquitin (8.5 kDa).
Briefly, 6×10^5 cells were incubated with 0-60 μM of test compounds for 12 hrs. Cells were lysed in 50 μL of 25 mM HEPES, 5 mM EDTA, 0.1% CHAPS, 5 mM ATP, pH 7.5. The protein concentration of each sample was adjusted to 0.3 mg/mL and incubated with 50 μg/mL Ub-PEST for 45 minutes at 25° C. Under these conditions, Ub-PEST hydrolysis occurs at a linear rate. 20 μL samples were mixed with 20 μL 2× Laemmli buffer, boiled briefly, and fractionated by SDSPAGE. Isopeptidase activity was monitored by determining the amount of product (8.5 kDa ubiquitin) formation.

[3] = test system: ubiquitin isopeptidases; assay: Ubiquitin isopeptidase activity, z-LRGG-AMC substrate, lysates of treated RKO and HCT 116 cells; format: cell-based, human; conditions: cells treated 6, 20 or 60 μM, 12 h
Description: RKO (upper) and HCT 116 ^+/+ cells (lower) were treated with DMSO vehicle, 6, 20, or 60 μM of Δ12-PGJ2, DBA, NSC-302979, or curcumin, 60 μM PGB1, 60 μM NSC-156236, or 60 μM DPTP for 12 h at 37° C. Cell lysates (0.5 mg/mL) from each treatment were incubated with the isopeptidase substrate, z-LRGG-AMC, for 3 h, 37° C. The amount of AMC cleaved by isopeptidase was determined fluorometrically, as described in Materials and Methods.
The second assay used a fluorescent tetrapeptide, z-LRGG-AMC, as a substrate that mimics the carboxy-terminus of ubiquitin. Isopeptidase activity hydrolyzes the bond between the c-terminal glycine and the fluorophore. This tetrapeptide also undergoes slow proteolysis by the catalytic subunit of the proteasome. To minimize this background rate of proteolysis cell lysates were incubated with 30 μM MG115 for 30 minutes at 4° C., prior to substrate incubation (>90% proteasome inhibition). Cells were teeated as above, lysed in 250 μL of lysis buffer per sample, and adjusted protein concentration to 0.5 mg/mL prior to incubation with MG115. Next, z-LRGG-AMC substrate was added and fluorescence was quantified of the AMC moiety cleaved by isopeptidase action.

[4] = test system: polyubiquitin conjugates in RKO-E6 cells; assay: Accumulation of polyubiquitin in RKO-E6 cells (immunoblot); format: cell-based, human; conditions: EC80 or 60 μM, 6-24 h
Description: as §1, §2

[5] = test system: cell lines with mutant/deleted p53; conditions: mean of 41-42 cell lines with mutant/deleted p53, cited from earlier work
[6] = test system: RKO cells; assay: MTT cell viability assay, RKO cells; conditions: 48 h; for cell death in RKO compared with RKO-E6 cells: isogenic pair; for EC50: read-out: Cytotoxic Potency (EC50) RKO
[7] = test system: RKO-E6 cells; assay: MTT cell viability assay, RKO-E6 cells; conditions: for EC50: read-out: Cytotoxic Potency (EC50) RKO-E6
Description: (§5) Cell viability was measured with MTT reagent as described in materials and methods.
(§6) Cell viability was detected by the MTT assay. Briefly, 1×10^5 cells were incubated per well of a sterile, 96-well assay plate with 0-60 μM of test compounds for 48 hours. MTT reagent was added to each well, final concentration of 0.5 mg/mL, and incubated for an additional 3 hours. The media was aspirated and remaining MTT reagent from each well and added 100 μL of HCl:isopropanol (1:24). The absorbance of each sample was measured at 405 nm.

[8] = test system: cell lines with Wild type p53; conditions: cited from earlier work
[9] = test system: HCT 116 +/+ cells; assay: MTT cell viability assay, HCT 116 p53 +/+ cells; conditions: for cell death in HCT 116 +/+ compared with HCT 116 −/− cells: isogenic pair; for EC50: read-out: Cytotoxic Potency (EC50) HCT +/+
[10] = test system: HCT 116 −/− cells; assay: MTT cell viability assay, HCT 116 p53 −/− cells; conditions: read-out: Cytotoxic Potency (EC50) HCT −/−
Description: as §5, §6

[11] = test system: HCT 116 (p53^−/−); assay: MTS cytotoxicity, HCT 116 (p53−/−); format: cell-based; conditions: Homo sapiens, log of EC50 in μM, 48 h, read-out: Log EC50 +/− Standard Error of Log EC50, HCT 116 (p53−/−) (converted)
Excerpt: (§3) Cytotoxicity in Human Colon Tumor (HCT) Cell Lines. To determine if punaglandins elicit cytotoxicity independently of the tumor-suppressor p53, as do other dienone prostaglandins, several cytotoxicity assays were employed. First, cell death effects of all isolated punaglandins were investigated in pairs of isogenic colon cancer cell lines, the HCT 116^+/+ competent cell line and HCT 116^−/− null cell lines. HCT 116^+/+ cells are homozygous for p53^+/+ and p21^+/+; where as, HCT 116^−/− cells lack both alleles for p53 (p53^−/−) or p21 (p21^−/−).
(§4) Each cell line was seeded simultaneously in 96-well plates and incubated for 24 h before treatment with individual punaglandins at various concentrations for 48 additional h. Cytotoxicity was determined using MTS and absorbances were recorded at 490 nm. Half maximal effective concentrations (EC50) and Log EC50s were calculated from a concentration-response curve generated using GraphPad Prism (Table 1).

[12] = test system: HCT 116 (p21^−/−); assay: MTS cytotoxicity, HCT 116 (p21−/−); format: cell-based; conditions: Homo sapiens, log of EC50 in μM, 48 h, read-out: Log EC50 +/− Standard Error of Log EC50, HCT 116 (p21−/−) (converted)
Excerpt: as §3, §4

[13] = test system: ubiquitin isopeptidases; assay: In vitro isopeptidase activity in HCT 116 lysates, Ub-PEST; format: biochemical, human; conditions: HCT 116 lysates, 45 min
Description: Isopeptidase Assay. It was hypothesized that the punaglandins would inhibit ubiquitin-isopeptidase activity of the proteasome pathway as does the prostaglandin, Δ^12-PGJ2 (1), but with greater potency because of the chlorinated C-10. To validate this theory, cellular isopeptidase enzymatic activity was measured in vitro after treatment with individual punaglandins, PNG 2 (6), PNG 3 (7), and Z-PNG 4 (9) and in vivo after individual treatment with PNG 4 (8) and PNG 6 (10). This activity was determined utilizing the simple isopeptidase substrate, ubiquitin-PEST (Ub-PEST), a full/length ubiquitin (Ub) molecule fused with an 18-amino acid C-terminal peptide extension that most isopeptidases use as a substrate. The polypeptide extension contains regions rich in Pro (P), Glu (E), Ser (S), and Thr (T) residues called PEST motifs that are responsible for rapid degradation of these and other unstable proteins. Ub isopeptidases specifically cleave this peptide extension, yielding free, full-length Ub. Both the fused Ub-PEST (10.5 kDa) and the cleaved, free Ub (8.5 kDa) can be observed via immunochemical detection.
In Vitro Isopeptidase Activity. PNG 2 (6), PNG 3 (7), and Z-PNG 4 (9) were initially analyzed for isopeptidase activity in vitro in HCT 116 lysates. Cells were lysed with isopeptidase activity buffer and protein concentration adjusted to 0.3 mg/mL per sample. Each sample was subsequently incubated with 2 μM, 6 μM, 20 μM, 60 μM, or 200 μM of PNG 2 (6), PNG 3 (7), Z-PNG 4 (9), Δ^12-PGJ2 (1), and PGA1 (2) in addition to 50 μg/ml of Ub-PEST. Negative control cells were treated with vehicle (0.5% DMSO) and equivalent Ub-PEST. […] The amount of fused Ub-PEST and free Ub product was determined by SDS-PAGE fractionation.

[14] = test system: HCT 116 (p53 wt); assay: MTS cytotoxicity, HCT 116 (p53 wt); format: cell-based; conditions: Homo sapiens, 48 h
Excerpt: as §3, §4

[15] = test system: HCT 116 (p21 wt); assay: MTS cytotoxicity, HCT 116 (p21 wt); format: cell-based; conditions: Homo sapiens, log of EC50 in μM, 48 h, read-out: Log EC50 +/− Standard Error of Log EC50, HCT 116 (p21 wt) (converted)
Excerpt: as §3, §4

Structure (SMILES): COc1cc(/C=C/C(=O)CC(=O)/C=C/c2ccc(O)c(OC)c2)ccc1O [Curcumin, curcumin]
ratio of p53 protein [RKO-E6 cells/RKO cells] [1]: approached unity
inhibition of isopeptidase cleavage of Ub-PEST [2]: inhibited isopeptidase activity in a concentration dependent manner
inhibition of z-LRGG-AMC hydrolysis by ubiquitin isopeptidases [3]: inhibited ubiquitin isopeptidase activity
cellular accumulation of polyubiquitin conjugates [4]: protein species with polyubiquitin conjugation accumulated in cells
CC50 ([5]; read-out: Mutant p53 Mean LC50): 68 µM
cell death in RKO compared with RKO-E6 cells ([6]; MTT): caused cell death with equal potency and efficacy
EC50 ([6]; Homo sapiens, RKO): 12.5 ± 5.9 µM
EC50 ([7]; Homo sapiens, RKOE6, 48 h): 14.9 ± 8.5 µM
EC80, concentration that gave 80% cell death ([7]; cell viability assay at 48 h, RKO-E6 cells): 17 µM
p53 dependence in NCI 60 cell line cancer screening data ([8]; analysis according to O'Connor et al., 1997): act independently of p53
cell death in HCT 116 +/+ compared with HCT 116 −/− cells ([9]; 48 h, MTT): caused cell death with equal potency
EC50 ([9]; Homo sapiens, HCT-116, 48 h): 9.7 ± 1.1 µM
EC50 ([10]; Homo sapiens, HCT-116, 48 h): 8.6 ± 1.3 µM

Structure (SMILES): CC1=CC(=O)C2=C(C)CCC3C(C)C(=O)OC3C12 (stereo not drawn) [NSC-156236, achillin]
ratio of p53 protein [RKO-E6 cells/RKO cells] [1]: significantly less than unity
inhibition of isopeptidase cleavage of Ub-PEST [2]: did not inhibit isopeptidase activity
inhibition of z-LRGG-AMC hydrolysis by ubiquitin isopeptidases [3]: did not
cellular accumulation of polyubiquitin conjugates [4]: did not cause appreciable cellular accumulation of ubiquitin conjugates
Mutant p53 Mean LC50 [5]: Inactive
cell death in RKO compared with RKO-E6 cells ([6]; MTT): did not cause significant cell death
EC50 ([6]; MTT): > 60 µM
EC50 ([7]; 48 h, MTT): > 60 µM
cytotoxic activity in NCI 60 cell line cancer screening data [8]: no appreciable cytotoxic activity
Wild Type p53 Mean LC50 ([8]; mean of 18 cell lines with wild type p53): Inactive
cell death in HCT 116 +/+ compared with HCT 116 −/− cells ([9]; 48 h, MTT): did not cause significant cell death
EC50 ([9]; 48 h, MTT): > 60 µM
EC50 ([10]; 48 h, MTT): > 60 µM

concentration at which inhibition of Ub-PEST degradation is initially observed [13]: 20 µM
concentration of complete (total) inhibition of Ub-PEST degradation [13]: 60 µM
Structure (SMILES): CCCCC/C=C\C[C@@]1(O)C=C(Cl)C(=O)/C1=C\[C@H](OC(C)=O)[C@H](CCCC(=O)OC)OC(C)=O [Z-PNG 4]
EC50 [11]: 0.0269 µM
EC50 [12]: 0.0324 µM
EC50 ([14]; read-out: EC50, cytotoxicity in HCT 116 cell lines): 0.03 µM
EC50 ([14]; log of EC50 in μM, read-out: Log EC50 +/− Standard Error of Log EC50, HCT 116 (p53 wt) (converted)): 0.0316 µM
EC50 [15]: 0.0295 µM
